# According to US11026906B2 (priority 2016, dated 2021):
# Entries after “also recorded” stand apart in the source; their conditions may differ. Where two headings read alike, the source gives them in different places.
# Columns and labels:
# [1] = in vivo; cited from earlier work
# [2] = Stability of the compositions (storage, light, heating under vacuum)
# [3] = for Area under the curve (AUC0-∞), Mean / Half-life (T1/2), Mean / Oral Bioavailability, Mean / Rate of elimination (K), Mean / Maximum serum concentration (Cmax), Mean: 10 subjects; for Maximum serum concentration (Cmax), Mean: fasted
# Description: The study was approved by an Institutional Review Board. […] Each provided informed consent to participate in the study.
# (§1) On the day of dose administration, the subjects arrived at the clinic fasted. Their qualifications for enrollment were reviewed to ensure compliance. Immediately prior to administration of the test article, an indwelling venous catheter was placed and a blood sample was withdrawn into a trace metal-free tube (the t=0 sample). […] After drinking the test article solution, fasting continued for 2 hours. During the day, however, subjects were provided usual and customary meals. Potential adverse events were monitored.
# Each blood sample was stored appropriately until all samples had been collected for the day. Then the blood samples were centrifuged to separate the serum, and each serum sample was transferred into two trace metal-free vials. The vials were shipped to an independent analytical laboratory for serum strontium analyses.
# as §1, with “One week later, on the day” for “On the day”, “administration, the same subjects arrived” for “administration, the subjects arrived”
# [4] = tested on: subject with osteonecrosis of the jaw and osteoarthritis; assay: Efficacy study in one subject: daily oral strontium L-lactate; type: in vivo, human
# Description: Likewise, today there are no effective treatments for osteonecrosis of the jaw caused by lengthy use of bone resorption inhibitors (anti-resorptives). […] The test subject experienced deterioration of the jawbone sufficient to loosen their teeth and cause pain when chewing. They received a 200 mg dose of strontium as the L-lactate each day, taken separately from food. […] Over a 3-month period, the subject receiving this treatment experienced a restoration of the jawbone sufficient to set the teeth more firmly and reduce the pain associated with chewing. […] The benefits were so remarkable that the subject continued treatment for at least 8 months, with continuing resolution of the bone and cartilage defects.
# A subject suffered from latent osteonecrosis of the jaw as a result of several years of alendronate treatment for osteoporosis. In addition to loose teeth and jaw pain during chewing due to the osteonecrosis, they suffered from osteoarthritis. Their dentist advised them that the necrosis was so serious they would lose several teeth and might have to change from a normal diet to a soft-food diet. Their arthritis was so severe that they had to give up crocheting and knitting, hobbies they had enjoyed for many years. […] They requested access to strontium L-lactate of the present invention. […] Their treatment continued for 8 months with similar improvements.
# [5] = tested on: subjects with femoral neck BMD less than 0.600 g/cm^2; assay: Double-blind clinical study, non-vertebral fractures over 3 year follow-up (expected results); conditions: 200 mg strontium daily vs placebo
# Description: In a double-blind clinical study, 80 subjects are divided into two groups (n=40). The control group receives a daily supplement containing 1.8 g of sodium L-lactate (placebo). […] All non-vertebral fractures will be recorded with the exception of the coccyx, skull, jaw, face, phalanx (fingers and toes) and ankle, since these latter are not regarded as being related to osteoporosis.
# [6] = daily doses of 0.3-0.6 grams; cited from earlier work
# [7] = tested on: men and women having low bone mass; conditions: cited from earlier work
# [8] = about 200 mg strontium per day orally, after 3 months
smiles,measurement,setting,value
C[C@@H](O)C(=O)O [D-lactate],blood concentration causing acidosis and encephalopathies,[1],≥ 3000 µM
C[C@H](O)C(=O)[O-].C[C@H](O)C(=O)[O-].O.O.O.[Sr+2] [strontium L-lactate trihydrate],stability on exposure to light,[2],stable
same,stability during storage,[2]; 25° C./60% relative humidity,stable
same,racemization on heating,"[2]; solid heated under vacuum, about 100° C. to about 130° C.",No racemization
C[C@H](O)C(=O)[O-].C[C@H](O)C(=O)[O-].[Sr+2] [strontium L-lactate],average serum concentration of strontium compared with strontium ranelate,"[3]; 170 mg dose of strontium as L-lactate vs 680 mg dose of strontium as ranelate (U.S. Pat. No. 7,595,342)",approximately equaled the serum concentration of strontium achieved by ingesting a 680 mg dose of strontium as the ranelate; also recorded: approximately equal to the serum concentrations of strontium provided by 680 mg of water-insoluble strontium ranelate
same,time at which average serum strontium concentration reached a maximum,[3]; after ingesting a solution of strontium L-lactate in water,about 3 hr
same,adverse effects,"[3]; after ingesting any of three escalating doses (170, 340, 680 mg strontium)",no adverse effects
same,"Area under the curve (AUC0-∞), Mean",[3]; oral dose 170 mg strontium,47.8 mg Sr/L · h
same,"Half-life (T1/2), Mean",[3]; oral dose 170 mg strontium,12.3
same,"Oral Bioavailability, Mean",[3]; oral dose 170 mg strontium,0.94
same,"Rate of elimination (K), Mean",[3]; oral dose 170 mg strontium,0.06 h⁻¹
same,"Area under the curve (AUC0-∞), Mean",[3]; oral dose 340 mg strontium,115.6 mg Sr/L · h
same,"Half-life (T1/2), Mean",[3]; oral dose 340 mg strontium,12.1
same,"Oral Bioavailability, Mean",[3]; oral dose 340 mg strontium,0.93
same,"Rate of elimination (K), Mean",[3]; oral dose 340 mg strontium,0.06 h⁻¹
same,"Area under the curve (AUC0-∞), Mean",[3]; oral dose 680 mg strontium,185.0 mg Sr/L · h
same,"Half-life (T1/2), Mean",[3]; oral dose 680 mg strontium,14.0
same,"Oral Bioavailability, Mean",[3]; oral dose 680 mg strontium,0.94
same,"Rate of elimination (K), Mean",[3]; oral dose 680 mg strontium,0.05 h⁻¹
same,"Maximum serum concentration (Cmax), Mean",[3]; single oral dose 340 mg strontium as strontium L-lactate in 100 mL water,6.3 mg Sr/L
same,"Maximum serum concentration (Cmax), Mean",[3]; single oral dose 680 mg strontium as strontium L-lactate in 100 mL water,9.3 mg Sr/L
same,side effects,"[4]; 200 mg strontium per day, at least 8 months",no side effects
same,"osteoarthritis: stiffness, pain, flexibility of hands",[4]; [8],increased flexibility of osteoarthritic hands and fingers; also recorded: the stiffness and pain of their osteoarthritis had significantly abated
same,osteonecrosis of the jaw: teeth setting and pain when chewing,[4]; [8],reduced the injury and pain associated with osteonecrosis of the jaw; also recorded: their teeth were more set in their jawbone and that they experienced less pain when chewing
same,non-vertebral fractures,[5],significant reduction in all non-vertebral fractures
CC(O)C(=O)[O-].CC(O)C(=O)[O-].[Sr+2] (centres unmarked) [strontium lactate],albumin in the urine,[6],decrease albumin in the urine
N#Cc1c(N(CC(=O)[O-])CC(=O)[O-])sc(C(=O)[O-])c1CC(=O)[O-].[Sr+2].[Sr+2] [strontium ranelate],incidence of fractures,"[7]; daily dose of 2 grams (680 mg strontium), almost a decade of clinical use",significantly reduced incidence of fractures
same,side effects of therapeutic doses of the strontium ion,[7]; human exposure,"does not cause gastric irritation, esophageal cancer, colon cancer, or osteonecrosis of the jaw"
O=C([O-])CCC(=O)[O-].[Sr+2] [strontium succinate],benefit in treating osteoporosis,[7]; daily dose of 1.7 grams (680 mg strontium),highly beneficial in treating osteoporosis
